According to patent US20240316067A1, “METHODS OF DECREASING HEPARAN SULFATE EXPRESSION USING EXT1 INHIBITORS” (priority 2023, published 2024):

Columns and labels:
Format in all cases: cell-based
HS3ST1 = HS3ST1 reporter cell line, HTS of FDA-approved drug library (EC-50, CCK-8); settings: a listed drug is a confirmed inhibitor
Source text: FIGS. 13A-13C show EC-50 and CCK-8 experiments on HS3ST1 using bortezomib.
FIGS. 14A-14C show EC-50 and CCK-8 experiments on HS3ST1 using zinc pyrithione.
FIGS. 15A-15B show EC-50 and CCK-8 experiments on HS3ST1 using artesunate.
(§1) Using a stable cell line with promoter luciferase reporter of the HS-biosynthetic gene EXT1, the EXT1 and other HS-biosynthetic gene reporter cell lines were screened with an FDA-approved drug library. (FIG. 1; FIG. 2)

EXT1 = EXT1 promoter luciferase reporter stable cell line, HTS of FDA-approved drug library (EC-50, CCK-8); settings: for confirmed candidates when screened with respect to EXT1: EC-50 and CCK-8, 10 μL; for Inhibition Candidate, confirmation at lower concentration: EXT1 cell line, 2nd confirmatory screen, a listed drug is a confirmed inhibitor
Source text: as §1

HS3ST4 = HS3ST4 reporter cell line, HTS of FDA-approved drug library; settings: a listed drug is a confirmed inhibitor
Source text: as §1

## C[C@H]1[C@H](OC(=O)CCC(=O)O)O[C@@H]2O[C@@]3(C)CC[C@H]4[C@H](C)CC[C@@H]1[C@@]24OO3 [Artesunate]
HS3ST1
  Inhibition Candidate, confirmation at lower concentration: A1- Artesunate

## C=C1/C(=C\C=C2/CCC[C@]3(C)[C@@H]([C@H](C)CCCC(C)(C)O)CC[C@@H]23)C[C@@H](O)C[C@@H]1O [Calcitriol, 1, 25-dihydroxycholecalciferol]
EXT1
  confirmed candidates when screened with respect to EXT1: confirmed candidates
  Inhibition Candidate, confirmation at lower concentration: B2- Calcitriol

## Zinc pyrithione
HS3ST1
  Inhibition Candidate, confirmation at lower concentration: D6- Zinc Pyrithione

## CC(C)C[C@H](NC(=O)[C@H](Cc1ccccc1)NC(=O)c1cnccn1)B(O)O [Bortezomib]
HS3ST1
  Inhibition Candidate, confirmation at lower concentration: B3- Bortezomib

## O=C(Nc1ccc([N+](=O)[O-])cc1Cl)c1cc(Cl)ccc1O [Niclosamide]
HS3ST4
  Inhibition Candidate, confirmation at lower concentration: A6- Niclosamide

## COc1ccc(/C=C\c2cc(OC)c(OC)c(OC)c2)cc1OP(=O)(O)O [Frosbretabullin, Fosbretabulin]
HS3ST4
  Inhibition Candidate, confirmation at lower concentration: D5- Frosbretabullin

## C=C1CC[C@H](O)C/C1=C/C=C1\CCC[C@]2(C)[C@@H]([C@H](C)CCCC(C)C)CC[C@@H]12 [Vitamin D3, cholecalciferol]
EXT1
  confirmed candidates when screened with respect to EXT1: confirmed candidates
  Inhibition Candidate, confirmation at lower concentration: D5- Vitamin D3
EXT1; listed as vitamin D3
  Inhibition Candidate, confirmation at lower concentration: confirmed to inhibit at low doses
